Test results reported in PMC2215728 (The Journal of General Physiology, 1978).
Where two headings read alike, the source gives them in different places.

Tests used:
[1] = Partition in two-phase aqueous/organic solvent; type: physicochemical; conditions: heptane:aqueous partition of nonionized form
[2] = test system: everted segments of rat jejunum; experiment: Influx of weak electrolytes into everted segments of rat jejunum in vitro; conditions: for Influx Jejunum: Table III; for Resistance Jejunum Unstirred layer: Table V, calculated as d/DSc; for Ratio of influx and nonionized concentration: J(1 + 10a)/C
[3] = test system: everted segments of rat ileum; experiment: Influx of weak electrolytes into everted segments of rat ileum in vitro; conditions: for Influx Ileum: Table III; for Resistance Ileum Unstirred layer: Table V, calculated as d/DSc
[4] = Table III, cited from earlier work
[5] = test system: everted segments of rat jejunum
[6] = test system: everted segments of rat ileum
[7] = 1 mM, pH 7.40, 1 min, 37C, mean SE (n)
[8] = Table I, everted rat jejunum, 1 mM solution, second weak electrolyte (10 mM): Benzylamine
[9] = Table I, everted rat jejunum, 1 mM solution, second weak electrolyte (10 mM): Pentanoic acid
[10] = Table I, everted rat jejunum, 1 mM solution, second weak electrolyte (10 mM): c-Hexylamine
[11] = Table I, everted rat jejunum, 1 mM solution, second weak electrolyte (10 mM): Benzoic acid
[12] = 0.1 mM solution, observed influx increased by a factor of 10
[13] = Table II, everted segments (region not stated), pH 7.4

SMILES	Influx Jejunum [2, 7] [nmol.100mg dry wt-1.min-1]	Resistance Jejunum Unstirred layer [2] [cm-3.min.100 mg dry wt]	Influx Ileum [3, 7] [nmol.100mg dry wt-1.min-1]	Resistance Ileum Unstirred layer [3]	also measured
CC(C)N [2-Amino propane]	6	1.47	4	1.54 cm-3.min.100 mg dry wt	ratio of kni Hept values for 2-amino-propane and propionic acid [1]: greater than 20; pKa ([4]; ref Ref. 6): 10.63
CC(=O)O [Acetic, acetic acid]	0		3		
O=C(O)c1ccccc1 [Benzoic, Benzoic acid]	17		15		Influx [2, 8]: 19 nmol.100mg dry wt-1.min-1; Influx [2, 9]: 21 nmol.100mg dry wt-1.min-1; Influx [2, 10]: 17 nmol.100mg dry wt-1.min-1
NCc1ccccc1 [Benzylamine]	220	1.92	155	2,02 cm-3.min.100 mg dry wt	Influx [2, 11]: 221 nmol.100mg dry wt-1.min-1; Influx [2, 10]: 211 nmol.100mg dry wt-1.min-1
CCCC(=O)O [Butyric]	12		11		
CCCCCCCCCC(=O)O [Decanoic, decanoic acid]		2.79		2.93 cm-3.min.100 mg dry wt	Influx Jejunum [2, 12]: 361 nmol.100mg dry wt-1.min-1; Influx Ileum [3, 12]: 158 nmol.100mg dry wt-1.min-1
CCCCCCCCCCN [Decylamine]		2.78			Influx Jejunum [2, 12]: 264 nmol.100mg dry wt-1.min-1
O=C(O)C(c1ccccc1)c1ccccc1 [Diphenylacetic]	14	2.81	7	2.95 cm-3.min.100 mg dry wt	pKa ([4]; ref Ref. 6): 3.94
CCCCCCC(=O)O [Heptanoic]	81	2.31	50	2.43 cm-3.min.100 mg dry wt	pKa ([4]; ref Ref. 6): 4.89
CCCCCC(=O)O [Hexanoic, HEXANOIC ACID]	73	2.13	29	2.24 cm-3.min.100 mg dry wt	
CN1C(=O)NC(=O)C(C)(C2=CCCCC2)C1=O (centres unmarked) [Hexobarbital]	348	2.86	327	3.00 cm-3.min.100 mg dry wt	pKa ([4]; ref Bush (1)): 8.20
CCC(=O)C(CC(C)N(C)C)(c1ccccc1)c1ccccc1 (centres unmarked) [Methadone]	272	3.74	259	3.93 cm-3.min.100 mg dry wt	
C=CCN1CC[C@]23c4c5ccc(O)c4O[C@H]2C(=O)CC[C@@]3(O)[C@H]1C5 [Naloxone]	286	3.38	263		pKa ([4]; ref Taylor (11)): 6.93
CCCCCCCC(=O)O [Octanoic, Octanoic acid]	147	2.47	56	2.60 cm-3.min.100 mg dry wt	Influx [2, 13]: 145; Influx ([2]; Table II, everted segments (region not stated), pH 7.9): 60; Influx ([2]; Table II, everted segments (region not stated), pH 8.4): 15
CCCCC(=O)O [Pentanoic, Pentanoic acid]	22	1.95	18	2.05 cm-3.min.100 mg dry wt	Influx [2, 11]: 22 nmol.100mg dry wt-1.min-1; Influx [2, 8]: 18 nmol.100mg dry wt-1.min-1; Influx [2, 10]: 20 nmol.100mg dry wt-1.min-1
CCC1(c2ccccc2)C(=O)NC(=O)NC1=O [Phenobarbital]	321	2.81		2.95 cm-3.min.100 mg dry wt	
O=C(O)Cc1ccccc1 [Phenylacetic, PHENYLACETIC ACID]	24	2.16	15	2.27 cm-3.min.100 mg dry wt	
CCC(=O)O [Propionic, propionic acid]	6	1.53	9	1.61 cm-3.min.100 mg dry wt	
NC1CCCCC1 [c-Hexylamine]	12	1.95	6	2.05 cm-3.min.100 mg dry wt	Influx [2, 11]: 9 nmol.100mg dry wt-1.min-1; Influx [2, 8]: 12 nmol.100mg dry wt-1.min-1; Influx [2, 9]: 9 nmol.100mg dry wt-1.min-1; Influx [2, 13]: 12; Ratio of influx and nonionized concentration ([2]; Table II, pH 7.4): 22; Ratio of influx and nonionized concentration ([2]; Table II, pH 7.9): 24; pKa ([4]; ref Ref. 6): 10.66
CCCCCCCO [heptanol]					influx of heptanol with pH of incubation saline ([2]; preliminary experiments, range of pH values 7.5-8.5): constant
CC(C)C(=O)O [iso-Butyric]	10	1.75	13	1.84 cm-3.min.100 mg dry wt	
CC(C)CC(=O)O [iso-Pentanoic]	21		20		Resistance Jejunum Empirical [5]: 4.76x 101; Resistance Jejunum Unstirred layer [5]: 1.95; Resistance Ileum Empirical [6]: 5.00x 101; Resistance Ileum Unstirred layer [6]: 2.05
